In US20190185461A1, “B[…] B2-RECEPTOR AGONIST ACTIVITY AND M3-RECEPTOR ANTAGONIST ACTIVITY AND MEDICAL USE THEREOF” (Sichuan Haisco Pharmaceutical Co., Ltd., priority 2015, published 2019) one finds IC50 and EC50 data, which are given here for 13 compounds.

The target in assay [1] is T1, human muscarine receptor M3 (hM3) (Homo sapiens, UniProt P20309).
T1 construct: host or cells: CHO cells
The assay can be described thus: Inhibitory activity against human muscarine receptor M3 (aequorin luminescence, CHO cells, acetylcholine challenge). Type of assay: cell-based. The conditions noted are these: IC50 for hM3 receptor, CHO cells stably expressing hM3 and apo-Aequorin; acetylcholine chloride 112.92 nM; luminescence over 20 seconds. The protocol: CHO cells (PerkinElmer, ES-212-AF) that stably express human muscarine receptor M3 (hM3) and apo-Aequorin were cultured at 37° C., 5% CO2 in Ham's F12 media (Invitrogen 12500-062) containing 10% fetal bovine serum (FBS) (Gibico 10099-141), 400 μg/mL G418 (sigma G5013) and 250 μg/mL Zeocin (Invivogen ant-zn-5p), until a confluency of 90% to 100% was reached. Cells were separated by rinsing with PBS/5 mM EDTA, collected by centrifugation, re-suspended in phenol red-free Ham's F12 media (Invitrogen 12500-062) containing 0.1 BSA (BOVOGEN BSAS 100), and counted. The cell concentration was adjusted to 1×10^6 cells/ml. 15 ml of the cell suspension was added to a 50-ml centrifuge tube, to which Coelenterazine-h (Promega 52011) was added to a final concentration of 5 μM. The tube was wrapped with a tin foil to shade light, and incubated on a rotary shaker at 20° C. for 4 hours. The cells were diluted with a phenol red-free/0.1% BSA Ham's F12 medium to a final concentration of 5.0×10^5 cells/ml, placed on a rotary shaker in low speed rotation, and incubated at room temperature for at least 1 hour. The compounds of the Examples were formulated with DMSO into 10 mM stock solutions, diluted in series with a phenol red-free/0.1% BSA Ham's F12 media (log(M): −7, −8, −9, −10, −11), and added to a 96-well plate at 50 μl/well. 50 μl cell suspension was further added to each well (25,000 cells/well) and incubated for 15 min at room temperature. The 96-well plate was placed in a microplate reader (Perkin Elmer, Envision), and a 50 μl solution of acetylcholine chloride (Sigma A6625) was added to each well at a concentration of 112.92 nM (hM3) with a microplate reader sample injector. The luminescence was recorded over 20 seconds, and IC50 values were calculated and analyzed by Origin 7.5.

In assay [2] the target is T2, human β2-adrenergic receptor (hβ2) (Homo sapiens, UniProt P07550).
T2 construct: host or cells: CHO cells
Kind of assay: Agonist activity on human β2-adrenergic receptor (LANCE Ultra cAMP Assay, CHO cells). Type of assay: cell-based. On the procedure: The agonist activity of the compounds of the Examples on the human adrenergic receptor was measured by the LANCE Ultra cAMP Assay.
CHO cells (PerkinElmer, ES-034-AF) that stably express human adrenergic receptor (hβ2) were cultured at 37° C., 5% CO2 in MEM-alpha media (Invitrogen 12561-056) containing 10% fetal bovine serum (FBS) (Gibico 10099-141) and 250 μg/ml Zeocin (InvivoGen ant-zn-5p), until a confluency of 90% to 100% was reached. Then the agonism on cAMP was tested by using a LANCE Ultra cAMP Assay kit (PerkinElmer TRF0263). Cells were separated with PBS/5 mM EDTA, collected by centrifugation, re-suspended in Stimulation Buffer (1×HBSS, 5 mM HEPES, 0.5 mM IBMX, 0.1% BSA, pH7.4), and adjusted to a cell concentration of 6×10^5 cells/ml. The compounds of the Examples were formulated with DMSO into 10 mM stock solutions, diluted in series with Stimulation Buffer, and added to a 384-well plate at 5 μl/well. 5 μl cell suspension was further added to each well (3,000 cells/well), incubated for 30 min at room temperature, then 5 μl of a 4×Eu-cAMP trace working solution was added to each well, and then 5 μl of a 4× Ulight-anti-cAMP working solution was added to each well, followed by incubation at room temperature for 1 hour. The 384-well plate was detected for TR-FRET with a microplate reader (Perkin Elmer, Envision), and EC50 values were calculated and analyzed by Origin 7.5.
In general terms: Time-resolved FRET reads energy transfer from a long-lived donor to a nearby acceptor.

In general, IC50 refers to the concentration that gives 50% inhibition. High values mean a need for much substance, low ones inhibition by little substance. For orientation: EC50 means the midpoint of the concentration-response curve. A low value points to higher potency in that assay.

T1 sequence (P20309 whole entry): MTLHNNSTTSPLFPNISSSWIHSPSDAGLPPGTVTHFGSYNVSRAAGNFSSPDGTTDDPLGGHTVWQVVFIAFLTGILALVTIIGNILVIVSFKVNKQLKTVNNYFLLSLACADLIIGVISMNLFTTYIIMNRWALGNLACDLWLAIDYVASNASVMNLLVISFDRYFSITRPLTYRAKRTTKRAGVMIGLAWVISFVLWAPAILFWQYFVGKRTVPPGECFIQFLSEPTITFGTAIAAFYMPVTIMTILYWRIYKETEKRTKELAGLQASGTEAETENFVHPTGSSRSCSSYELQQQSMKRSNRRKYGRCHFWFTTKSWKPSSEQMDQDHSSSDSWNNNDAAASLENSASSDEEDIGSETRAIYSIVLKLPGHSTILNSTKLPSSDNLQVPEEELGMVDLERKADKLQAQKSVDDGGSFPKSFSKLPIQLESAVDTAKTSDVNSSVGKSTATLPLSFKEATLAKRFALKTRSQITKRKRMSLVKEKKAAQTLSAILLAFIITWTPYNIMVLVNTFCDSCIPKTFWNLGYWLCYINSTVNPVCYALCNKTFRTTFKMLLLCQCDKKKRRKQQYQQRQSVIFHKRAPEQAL
T2 sequence (P07550 whole entry): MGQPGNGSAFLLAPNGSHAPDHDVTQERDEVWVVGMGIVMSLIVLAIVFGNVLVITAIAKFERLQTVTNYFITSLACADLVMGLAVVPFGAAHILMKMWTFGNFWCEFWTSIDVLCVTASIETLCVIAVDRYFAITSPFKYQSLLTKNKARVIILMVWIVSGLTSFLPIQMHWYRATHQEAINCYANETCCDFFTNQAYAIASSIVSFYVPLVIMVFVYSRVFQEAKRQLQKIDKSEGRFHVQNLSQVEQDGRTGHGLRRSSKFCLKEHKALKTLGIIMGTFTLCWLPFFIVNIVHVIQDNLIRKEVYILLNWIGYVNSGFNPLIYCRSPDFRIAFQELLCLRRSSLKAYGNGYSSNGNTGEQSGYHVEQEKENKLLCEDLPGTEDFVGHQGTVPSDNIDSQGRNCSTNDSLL

In assay [1], `O=C(OC1CC2(CCN(CCCn3nnc4cc(CNC[C@H](O)c5ccc(O)c6[nH]c(=O)ccc56)ccc43)CC2)C1)C(O)(c1cccs1)C1CCCC1` (single isomer, unassigned) [Isomer 1 of Compound 9, ditrifluoroacetic acid] registered a half-maximal inhibitory concentration (IC50) of 2.47 nM.

The compound `O=C(OC1CC2(CCN(CCCn3nnc4cc(CNC[C@H](O)c5ccc(O)c6[nH]c(=O)sc56)ccc43)CC2)C1)C(O)(c1cccs1)c1cccs1` [Compound 12, [7-[3-[5-[[[(2R)-2-hydroxy-2-(4-hydroxy-2-oxo-3H-1,3-benzothiazol-7-yl)ethyl]amino]methyl]benzotriazol-1-yl]propyl]-7-azaspiro[3.5]nonan-2-yl] 2-hydroxy-2,2-bis(2-thienyl)acetate; ditrifluoroacetic acid] showed an EC50 in assay [2] of 0.47 nM. The half-maximal inhibitory concentration (IC50) in assay [1] came out at 0.52 nM.

Compound `O=C(OC1CC2(CCN(CCCn3c(=O)oc4cc(CNC[C@H](O)c5ccc(O)c6[nH]c(=O)ccc56)ccc43)CC2)C1)C(O)(c1cccs1)c1cccs1` [Compound 8, [7-[3-[6-[[[(2R)-2-hydroxy-2-(8-hydroxy-2-oxo-1H-quinolin-5-yl)ethyl]amino]methyl]-2-oxo-1,3-benzoxazol-3-yl]propyl]-7-azaspiro[3.5]nonan-2-yl] 2-hydroxy-2,2-bis(2-thienyl)acetate; ditrifluoroacetic acid] registered a concentration giving a half-maximal response (EC50) in assay [2] of 6.13 nM. Besides, the IC50 in assay [1] turned out to be 0.65 nM.

In assay [1], `O=CNc1cc([C@@H](O)CNCc2ccc3c(c2)nnn3CCCN2CCC3(CC2)CC(OC(=O)C(O)(c2cccs2)c2cccs2)C3)ccc1O` [Compound 3, [7-[3-[5-[[[(2R)-2-(3-formamido-4-hydroxy-phenyl)-2-hydroxy-ethyl]amino]methyl]benzotriazol-1-yl]propyl]-7-azaspiro[3.5]nonan-2-yl] 2-hydroxy-2,2-bis(2-thienyl)acetate; ditrifluoroacetic acid] registered a 50% inhibitory concentration (IC50) of 0.22 nM.

`O=C(OC1CC2(CCN(CCCn3nnc4cc(CNC[C@H](O)c5ccc(O)c6[nH]c(=O)ccc56)ccc43)CC2)C1)C(O)(c1ccccc1)C1CCCC1` (single isomer, unassigned) [Isomer 1 of Compound 4] yielded a half-inhibitory concentration (IC50) in assay [1] of 2.36 nM.

The compound `O=C(OC1CC2(CCN(CCCn3nnc4cc(CNC[C@H](O)c5ccc(O)c6[nH]c(=O)ccc56)ccc43)CC2)C1)C(O)(c1ccccc1)C1CCCC1` (single isomer, unassigned) [Isomer 2 of Compound 4] yielded a 50% inhibitory concentration (IC50) in assay [1] of 1.77 nM.

The compound `O=C(OC1CC2(CCN(CCCn3nnc4cc(CNC[C@H](O)c5ccc(O)c6[nH]c(=O)ccc56)ccc43)CC2)C1)C(O)(c1cccs1)C1CCCC1` (single isomer, unassigned) [Isomer 2 of Compound 9, ditrifluoroacetic acid] showed an IC50 in assay [1] of 2.76 nM.

For `O=C(OC1CC2(CCN(CCCn3c(=O)sc4cc(CNC[C@H](O)c5ccc(O)c6[nH]c(=O)ccc56)ccc43)CC2)C1)C(O)(c1cccs1)c1cccs1` [Compound 7, [7-[3-[6-[[[(2R)-2-hydroxy-2-(8-hydroxy-2-oxo-1H-quinolin-5-yl)ethyl]amino]methyl]-2-oxo-1,3-benzothiazol-3-yl]propyl]-7-azaspiro[3.5]nonan-2-yl] 2-hydroxy-2,2-bis(2-thienyl)acetate; ditrifluoroacetic acid], the half-maximal effective concentration (EC50) in assay [2] came out at 4 nM. The same compound came in with an IC50 in assay [1] of 1.29 nM.

In assay [1], `O=C(OC1CC2(CCN(CCCn3nnc4cc(CNC[C@H](O)c5ccc(O)c6[nH]c(=O)ccc56)ccc43)CC2)C1)C(O)(c1ccccc1)C1CCCC1` (stereo partly drawn) [Compound 4, [7-[3-[5-[[[(2R)-2-hydroxy-2-(8-hydroxy-2-oxo-1H-quinolin-5-yl)ethyl]amino]methyl]benzotriazol-1-yl]propyl]-7-azaspiro[3.5]nonan-2-yl] 2-cyclopentyl-2-hydroxy-2-phenyl-acetate; ditrifluoroacetic acid] yielded an IC50 of 2.46 nM.

In assay [1], `O=C(OC1CC2(CCN(CCCn3nnc4cc(CNC[C@H](O)c5ccc(O)c(CO)c5)ccc43)CC2)C1)C(O)(c1cccs1)c1cccs1` [Compound 13, [7-[3-[5-[[[(2R)-2-hydroxy-2-[4-hydroxy-3-(hydroxymethyl)phenyl]ethyl]amino]methyl]benzotriazol-1-yl]propyl]-7-azaspiro[3.5]nonan-2-yl] 2-hydroxy-2,2-bis(2-thienyl)acetate; ditrifluoroacetic acid] gave an IC50 of 0.31 nM.

In the case of `O=C1COc2c([C@@H](O)CNCc3ccc4c(c3)nnn4CCCN3CCC4(CC3)CC(OC(=O)C(O)(c3cccs3)c3cccs3)C4)ccc(O)c2N1` [Compound 2, [7-[3-[5-[[[(2R)-2-hydroxy-2-(5-hydroxy-3-oxo-4H-1,4-benzoxazin-8-yl)ethyl]amino]methyl]benzotriazol-1-yl]propyl]-7-azaspiro[3.5]nonan-2-yl] 2-hydroxy-2,2-bis(2-thienyl)acetate; ditrifluoroacetic acid], in assay [2], it took 1.3 nM to reach a half-maximal effect (EC50). Further, in assay [1], the midpoint of inhibition, the IC50, lay at 0.59 nM.

`CN(CCCn1nnc2cc(CNC[C@H](O)c3ccc(O)c4[nH]c(=O)ccc34)ccc21)C(=O)CCN1CCC2(CC1)CC(OC(=O)C(O)(c1cccs1)c1cccs1)C2` [Compound 11, [7-[3-[3-[5-[[[(2R)-2-hydroxy-2-(8-hydroxy-2-oxo-1H-quinolin-5-yl)ethyl]amino]methyl]benzotriazol-1-yl]propyl-methyl-amino]-3-oxo-propyl]-7-azaspiro[3.5]nonan-2-yl] 2-hydroxy-2,2-bis(2-thienyl)acetate; ditrifluoroacetic acid]: the half-inhibitory concentration (IC50) in assay [1] was found to be 0.46 nM. This lies in the sub-nanomolar range.

The compound `O=C(OC1CC2(CCN(CCCn3nnc4cc(CNC[C@H](O)c5ccc(O)c6[nH]c(=O)ccc56)ccc43)CC2)C1)C(O)(c1cccs1)c1cccs1` [Compound 1, [7-[3-[5-[[[(2R)-2-hydroxy-2-(8-hydroxy-2-oxo-1H-quinolin-5-yl)ethyl]amino]methyl]benzotriazol-1-yl]propyl]-7-azaspiro[3.5]nonan-2-yl] 2-hydroxy-2,2-bis(2-thienyl)acetate] had a concentration giving a half-maximal response (EC50) in assay [2] of 4.45 nM. The compound also yielded an IC50 in assay [1] of 0.43 nM.
